Source: ChEMBL document CHEMBL3044886, “Chemoselective synthesis, antiproliferative activities, and SAR study of 1H-pyrazol-5-yl-N,N-dimethylformamidines and pyrazolyl-2-azadienes” (2012)

Assays:
Type in all cases: functional
[1] = system: NCI-H226; assay: Growth inhibition of Homo sapiens (human) NCI-H226 cells after 72 hr by MTT assay; conditions: NCI-H226, 72 h
[2] = Growth inhibition of Homo sapiens (human) NPC-TW01 cells after 72 hr by MTT assay; conditions: NPC-TW01, 72 h
[3] = system: Jurkat; assay: Growth inhibition of Homo sapiens (human) Jurkat cells after 72 hr by MTT assay

SMILES | GI50 [1] [µM] | GI50 [2] [µM] | GI50 [3] [µM]
CN(C)/C=N/c1c(C=O)c(-c2ccccc2)nn1-c1ccccc1 | 31.4 | 9.3 | –
CN(C)/C=N/c1c(C=O)c(-c2ccc(Cl)cc2)nn1-c1ccc(Br)cc1 | 62.9 | > 100 | 38.9
CN(C)/C=N/c1cc(-c2ccccc2)nn1-c1ccccc1 | > 100 | > 100 | > 100
Cc1ccc(-c2cc(/N=C/N(C)C)n(-c3cccc(Cl)c3)n2)cc1 | 80.9 | > 100 | > 100
CN(C)/C=N/c1cc(-c2ccc(Cl)cc2)nn1-c1cccc(Cl)c1 | 75.6 | 92.7 | 74.5
Cc1ccc(-c2cc(/N=C/N(C)C)n(-c3ccc(Br)cc3)n2)cc1 | 73.9 | > 100 | > 100
CN(C)/C=N/c1cc(-c2ccc(Cl)cc2)nn1-c1ccc(Br)cc1 | 59.8 | 60.7 | 84.9
Nc1c(C=O)c(-c2ccccc2)nn1-c1ccccc1 | > 100 | > 100 | 87.3
Cc1ccc(-c2nn(-c3cccc(Cl)c3)c(N)c2C=O)cc1 | 71.8 | > 100 | 86.3
Nc1c(C=O)c(-c2ccc(Cl)cc2)nn1-c1cccc(Cl)c1 | 79.7 | > 100 | 78.9
Cc1ccc(-c2nn(-c3ccc(Br)cc3)c(N)c2C=O)cc1 | 8.5 | 28.2 | 34.4
Nc1c(C=O)c(-c2ccc(Cl)cc2)nn1-c1ccc(Br)cc1 | 49.1 | 59.7 | 90.7
Nc1cc(-c2ccccc2)nn1-c1ccccc1 | 72.2 | > 100 | 83
Cc1ccc(-c2cc(N)n(-c3cccc(Cl)c3)n2)cc1 | 63.5 | > 100 | 56.6
Nc1cc(-c2ccc(Cl)cc2)nn1-c1cccc(Cl)c1 | 75.1 | > 100 | > 100
Cc1ccc(-c2cc(N)n(-c3ccc(Br)cc3)n2)cc1 | 54.3 | 80.2 | 45
Nc1cc(-c2ccc(Cl)cc2)nn1-c1ccc(Br)cc1 | 58.7 | 64.4 | 61.3
Cc1ccc(-c2nn(-c3cccc(Cl)c3)c(/N=C/N(C)C)c2C=O)cc1 | 8.9 | 7.2 | 7.8
CN(C)/C=N/c1c(C=O)c(-c2ccc(Cl)cc2)nn1-c1cccc(Cl)c1 | 9.2 | 7.4 | 7.7
Cc1ccc(-c2nn(-c3ccc(Br)cc3)c(/N=C/N(C)C)c2C=O)cc1 | 8.2 | 6 | 6.7
